The results in this text go back to patent US20250288587A1, “Methods of Treating Fibrosis” (Athira Pharma, Inc., priority 2022, published 2025).

Structures are written as SMILES.

What all share (assay type): in vivo
The subject of assay [1] is BALB/c mice, CCl4 mouse model of liver fibrosis. Nature of the assay: CCl4-induced liver fibrosis, plasma AST. The settings on record: for AST in plasma, improvement compared to disease control: from study day 21, termination day 43. The procedure: Liver fibrosis in BALB/c mice was induced by biweekly intraperitoneal injections of carbon tetrachloride (CCl4) from study day 0 to 43. Mice were treated with vehicle, Compound 1a, or positive control, SB535334, beginning at study day 21. At termination (study day 43), plasma was tested for liver function via levels of aspartate aminotransferase (AST).
AST can be used as a marker of liver damage, because increased levels are released in the blood stream in chronic liver disease.

A further assay deals with CFA-stimulated rats. Nature of the assay: CFA inflammatory pain model, thermal hyperalgesia (Hargreaves method). The note with it: Day 5, 1 hour pre-dosing; data not shown.
Assay [2] has as its system pulmonary LPS-stimulated rats. Nature of the assay: Immune cell infiltration in BALF, LPS-induced acute pulmonary inflammation. The note with it: 0.0075 mg/kg IV, 24 h and 0.5 h before LPS; BALF 4 h post LPS.

For the compound `CCC(C)CN1CC2N(C(=O)c3ccc(C(F)(F)F)cc3)CCC(=O)N2[C@@H](C)C1=O` (some centres unmarked) [Compound 1a], the “AST levels in plasma compared to CCl4-treated mice receiving vehicle” value in assay [1] (0.5 mg/kg, 8 mg/kg, and 16 mg/kg) is given as “modest but non-significant decreases”. Also, the “AST in plasma, improvement compared to disease control” value is given as “++ (++ = >26-50% improvement compared to disease control)” in assay [1] (Dose 0.5 (mg/kg)), “− (− = change of <5% compared to disease control)” in assay [1] (Dose 2 (mg/kg)), “++ (++ = >26-50% improvement compared to disease control)” in assay [1] (Dose 8 (mg/kg)) and “++ (++ = >26-50% improvement compared to disease control)” in assay [1] (Dose 16 (mg/kg)). The “PWL (paw withdrawal latency)” value in the assay on CFA-stimulated rats is on record as “statistically significant increase”. Besides, the “Neutrophils in BALF, reduction in cell count vs disease control” value in assay [2] is listed as “++ (++ = >25% reduction in cell count vs disease control)”. Moreover, the “Total Leukocytes in BALF, reduction in cell count vs disease control” value in assay [2] is reported as “++ (++ = >25% reduction in cell count vs disease control)”.
